According to patent US7964613B2 (Asahi Kasei Pharma Corporation, priority 2007, dated 2011):
Structures can show the parent of a compound that is named as a salt.

Assays:
TNF-α production = test: Inhibitory effect on TNF-α production in mice (LPS); format: in vivo, BALB/c mice; conditions: Mus musculus, 1.5 h; oral administration of 30 mg/kg, LPS 5 μg i.p. 60 minutes later, plasma after 90 minutes; read-out: TNF-α production suppressing action
Method: BALB/c mice (Japan CRJ, famale) were used as experimental animals. Each test compound was dissolved in distilled water at a concentration suitable for the examination. The weight of each mouse was measured, a test compound solution was orally administered in a volume corresponding to 10 ml/kg, and only distilled water was administered to the control group. Each group consisted of five to seven animals. LPS was dissolved in physiological saline, and intraperitoneally administered to each mouse in an amount of 5 μg. The test compound was administered first, and LPS (lipopolysaccharide, Sigma) was administered 60 minutes later. After 90 minutes, blood was collected from the abdominal large vein in the presence of heparin, and plasma was obtained by centrifugation. TNF-α content in the plasma was measured by using the ELISA method.

[1] = tested on: mouse neuroblastoma cell strain N1E-115; test: Inhibitory effect on neurite retraction (LPA-induced); format: cell-based; conditions: mouse/rat NG108-15; 10 μM compound, 1 μM LPA, N1E-115 cells
Method: An experiment for Inhibitory effect on neurite retraction using mouse neuroblastoma cell strain N1E-115 was performed according to the method of Hirose, M. et al. (J. Cell. Biol., 141, pp. 1625-1636 (1998)). This method utilizes the fact that LPA (lysophosphatidic acid), which is a endogenous substance, induces neurite retraction, and is a method of evaluating how much a drug can inhibit the LPA-induced neurite retraction and thereby evaluating potency of inhibition of neuronal degeneration and potency of neuronal regeneration of the drug. N1E-115 cells cultured in a DMEM solution containing 20% heat-inactivated fetal bovine serum were plated on a 6-well plate (IWAKI) at a density of 40,000 cells/well, and cultured overnight at 37° C. in the same culture medium in a 5% CO2 incubator. In order to induce differentiation of the N1E 115 cells into nerve cells, the culture medium was changed to the serum-free DMEM solution, and the cells were cultured for 1 or 2 days at 37° C. in the 5% CO2 incubator until most of the cells extended the neurites. On the examination day, each compound of the present invention was added at a final concentration of 10 μM, incubation was performed for 30 minutes, then LPA (Sigma) was added at a final concentration of 1 μM, and incubation was further performed for 10 minutes. To the control, the same volume of phosphate buffered saline as the solvent was added. After completion of the incubation, glutaraldehyde was added at a final concentration of 5% to fix the cells. […] The inhibition rate (%) of each drug was calculated by using the following equation. Inhibition rate(%)=100−(RCP obtained with drug to be evaluated−RCP of control)/(RCP obtained with LPA−RCP of control)×100

human ROCK1 = target: T1, human ROCK1 (Homo sapiens, UniProt Q13464); test: Measurement of Rho kinase inhibitory activity (ELISA of MBS phosphorylation); format: biochemical; conditions: human ROCK1, MBS substrate, 100 μM ATP, 30° C. for 10 minutes
T1 construct: His tag (N); host or cells: insect cells (Sf9)
T1 sequence (Q13464 1-727): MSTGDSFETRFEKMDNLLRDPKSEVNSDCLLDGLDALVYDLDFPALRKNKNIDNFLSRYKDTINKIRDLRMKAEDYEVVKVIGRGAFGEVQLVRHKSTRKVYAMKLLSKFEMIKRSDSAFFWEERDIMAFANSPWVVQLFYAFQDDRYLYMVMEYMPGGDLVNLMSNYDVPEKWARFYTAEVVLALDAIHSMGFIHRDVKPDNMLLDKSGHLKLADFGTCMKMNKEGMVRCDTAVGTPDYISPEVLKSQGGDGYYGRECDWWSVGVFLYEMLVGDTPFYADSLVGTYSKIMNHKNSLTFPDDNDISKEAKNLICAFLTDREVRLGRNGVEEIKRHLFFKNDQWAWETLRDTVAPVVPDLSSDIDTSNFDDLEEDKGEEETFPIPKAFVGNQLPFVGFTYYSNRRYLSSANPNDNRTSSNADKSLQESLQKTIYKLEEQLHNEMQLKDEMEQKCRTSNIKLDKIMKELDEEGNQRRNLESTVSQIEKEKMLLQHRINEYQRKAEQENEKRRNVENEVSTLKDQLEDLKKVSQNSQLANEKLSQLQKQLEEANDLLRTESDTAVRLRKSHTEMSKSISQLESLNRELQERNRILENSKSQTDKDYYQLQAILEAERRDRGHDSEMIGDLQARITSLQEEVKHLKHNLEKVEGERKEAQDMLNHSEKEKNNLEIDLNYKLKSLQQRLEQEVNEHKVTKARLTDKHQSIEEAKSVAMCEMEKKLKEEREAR
Summary of the method: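 N-terminal His-tagged human ROCK1 (1-727, Sf9-expressed) phosphorylated plate-immobilized MBS in 20 mM HEPES pH 7.5, 100 μM ATP, 30° C for 10 minutes. Phospho-MBS detected by antibody ELISA (A490); IC50 is concentration giving 50% inhibition.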

intraocular pressure = test: Rabbit intraocular pressure reduction enhancing action, Test Example 7-1 (combination use); format: in vivo, Japanese white rabbit; conditions: 19-1 compound 0.01 weight % aqueous solution 50 μL, left-right eye difference at 2, 4, 6 hours, six rabbits
Method: However, the effect is not limited to the 19-1 compound, and the ophthalmic solution concentration of the 19-1 compound is not limited to those used in this test example. Moreover, as for the test compound used for combination use, similar effect can be obtained also with the compounds of the present invention represented with the example numbers mentioned in Test Example 3.
As a test compound, the 19-1 compound was dissolved in physiological saline, and the solution was neutralized by addition of sodium hydroxide (pH 7.0 to 8.0) to prepare a 0.01 weight % aqueous solution (19-1 compound aqueous solution). As the drugs for combination use, isopropyl unoprostone (trade name: Rescula, Santen Pharmaceutical) was used as a prostaglandin-related drug, and brinzolamide hydrochloride (trade name: Azopt, Alcon Japan) was used as […], as the marketed formulations as they were.
A Japanese white rabbit having a body weight of about 2 kg was placed in a positioner and naturalized for one week before the experiment. An opthalmologic local anesthesant (Benoxil) was administered to both eyes, and then intraocular pressure before instillation was measured by using a tonometer (Classic 30, Solan). A test aqueous solution or the drug for combination use was administered to the left eye, and the right eye was not treated (control eye). The test groups consisted of (1) control group, (2) group instilled only with the 19-1 compound aqueous solution (single drug group 1), (3) group instilled only with the drug for combination use (single drug group 2), and (4) group instilled with the drug for combination use and the 19-1 compound aqueous solution (combination use group), and six rabbits were used for each group. As for the rabbits of these groups, 50 μL of physiological saline was first instilled to the control group, single drug group 1, and single drug group 2, and the drug for combination use was first instilled in the same volume to the combination use group. […] The intraocular pressure thereafter was measured for each group 2, 4 and 6 hours after the second administration of the test compound, and the difference of the measured values for the left and right eyes at each measurement time was considered an intraocular pressure reduction value of each group. The largest difference of the intraocular pressure values for the left and right eyes among those of the measured values of the measurement times was considered the maximum intraocular pressure reduction value (max ? IOP) of each drug group.

[2] = tested on: rabbit normal intraocular pressure; test: Intraocular pressure reducing action; format: in vivo, Japanese white rabbit; conditions: Oryctolagus cuniculus, topical; 3 mM aqueous solution, 50 μl to the left eye; max IOP reduction (2, 4, 6 hours) / value immediately before administration; read-out: intraocular pressure reducing degree
Summary of the method: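 Japanese white rabbits (~2 kg) under topical anaesthesia received 50 μl of a 3 mM aqueous test solution in the left eye, right eye untreated. IOP read by tonometer before and at 2, 4, 6 h; maximal left–right difference divided by pre-dose IOP ×100 gives % reduction.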

[3] = tested on: rat spinal canal stenosis (cauda equina compression-induced walking dysfunction) model; test: Rat spinal canal stenosis model, walking ability test; format: in vivo; conditions: treadmill; for walk distance compared with the solvent repetitive administration group: 14th day of repetitive administration; for Inventive compound repetitive administration group (average distance (m)): 14th day of repetitive administration started 4th day after operation, 7 or 8 animals
Source text: A rat spinal canal stenosis (cauda equina compression-induced walking dysfunction) model can be prepared according to the method of Nakai, K et al. (Anesth. Analg., 94, pp. 1537-1541 (2002)) or the like. Namely, a rat is anesthetized with pentobarbital sodium, shaved on the back, and fixed in the abdominal position. After disinfection on the back with Isodine Surgical Scrub (Meiji Seika), a lumbar part is cut open along the median to expose the spine. Then, a silicone rubber of 1×4×1.5 mm (height×length×width) is inserted into the fifth lumbar vertebral canal from a small hole on the vertebral arch. Benzylpenicillin potassium (Crystalline Penicillin G Potassium Meiji, Meiji Seika) is dropped on the opened lesion and intramuscularly injected in the femoral region for the purpose of evasion of infectious diseases. The muscles and skin of the opened lesion are sutured with a ligature, and Isodine Surgical Scrub is applied to the sutured portion. Animals of sham group are also prepared according to the aforementioned method, provided that silicone rubber is not inserted.
In walking ability test, evaluation is performed by using a treadmill (Muromachi Kikai). A rat is placed on a traveling belt, adapted to the environment more than 3 minutes under a grid-electrified condition (0.04 to 4 mA), and then made to start walking from a velocity of 10 m/min, and then the velocity is increased by 5 m/min every 3 minutes. The walk is stopped, and electrical stimulation (0.04 to 4 mA) is applied to the rat which has moved to the grid for electrical stimulation provided before the traveling belt. Distance which the animal walked after the animal started the walk until the animal became unable to walk, i.e., the animal came not to walk even if a stimulation (sound, contact, electricity) was added to the animal to urge it to walk, was calculated from the walking time. Before the operation, the walking function test is carried out 3 times to perform training of walk. From the 4th day after the operation, repetitive administration of each compound of the present invention as a test compound was started, and the walking ability test was performed on the 14th day of the administration for the measurement.
Each group consisted of 7 or 8 animals, and the average distance before the administration was the average for the animals of both groups. […] It was confirmed that the compounds of the present invention were useful as medicaments for therapeutic treatment of a disease accompanied by walking dysfunction such as spinal canal stenosis.

SMILES | IC50 (human ROCK1) [µM] | inhibition in vivo at 30 mg/kg (TNF-α production) [%] | inhibition at 10 µM [1] [%] | Max IOP (maximum intraocular pressure reduction value) (intraocular pressure; Table 4, Azopt 50 μL) [mmHg] | inhibition in vivo at 3000 µM [2] [%] | Max IOP (maximum intraocular pressure reduction value) (intraocular pressure; Table 5, Rescula 50 μL) [mmHg] | walk distance compared with the solvent repetitive administration group [3] | Inventive compound repetitive administration group (average distance (m)) [3] [m]
O=S(=O)(c1cccc2cncc(Cl)c12)N1CC[C@H](NC2CCOCC2)C1 [Example 19-31] | 1 to 3 | ≥ 50 | ≥ 50 | – | – | – | – | –
CCN[C@H]1CN(CCCOC)S(=O)(=O)c2sc(S(N)(=O)=O)cc21 [brinzolamide hydrochloride, reference compound] | – | – | – | 2.3 | – | – | – | –
O=S(=O)(c1cccc2cncc(Br)c12)N1CC[C@H](NCc2ccc[nH]2)C1 [Example 1-18] | < 1 | ≥ 50 | ≥ 50 | – | 10 to 20 | – | – | –
CCCCCCCC(=O)CC[C@@H]1[C@@H](C/C=C\CCCC(=O)OC(C)C)[C@@H](O)C[C@H]1O [isopropyl unoprostone, reference compound] | – | – | – | – | – | 4.4 | – | –
N[C@H]1CCN(S(=O)(=O)c2cccc3cncc(F)c23)C1 [Example 18-1, (S)-3-Amino-1-(4-fluoro-5-isoquinolinesulfonyl)pyrrolidine] | 1 to 3 | ≥ 50 | ≥ 50 | – | ≥ 20 | – | – | –
Cc1cncc2cccc(S(=O)(=O)N3CC[C@H](N)C3)c12 [Example 8-1, (S)-3-Amino-1-(4-methyl-5-isoquinolinesulfonyl)pyrrolidine] | < 1 | ≥ 50 | – | – | ≥ 20 | – | extended the walk distance | 169
N[C@H]1CCN(S(=O)(=O)c2cccc3c(O)ncc(F)c23)C1 [Example 29-1, (S)-3-Amino-1-(1-hydroxy-4-fluoro-5-isoquinolinesulfonyl)pyrrolidine] | < 1 | ≥ 50 | ≥ 50 | – | 10 to 20 | – | – | –
C#Cc1cncc2cccc(S(=O)(=O)N3CC[C@H](N)C3)c12 [Example 10-1, (S)-3-Amino-1-(4-ethynyl-5-isoquinolinesulfonyl)pyrrolidine] | < 1 | ≥ 50 | – | – | ≥ 20 | – | – | –

Now from value to compound, other results behind:

IC50 (human ROCK1) [µM] | SMILES | inhibition in vivo at 30 mg/kg (TNF-α production) [%] | inhibition at 10 µM [1] [%] | Max IOP (maximum intraocular pressure reduction value) (intraocular pressure; Table 4, Azopt 50 μL) [mmHg] | inhibition in vivo at 3000 µM [2] [%] | Max IOP (maximum intraocular pressure reduction value) (intraocular pressure; Table 5, Rescula 50 μL) [mmHg] | walk distance compared with the solvent repetitive administration group [3] | Inventive compound repetitive administration group (average distance (m)) [3] [m]
< 1 | Nc1ncc(Cl)c2c(S(=O)(=O)N3CC[C@H](N)C3)cccc12 [Example 39-1, (S)-3-Amino-1-(1-amino-4-chloro-5-isoquinolinesulfonyl)pyrrolidine] | ≥ 50 | ≥ 50 | – | 10 to 20 | – | – | –
< 1 | CN[C@H]1CCN(S(=O)(=O)c2cccc3c(N)ncc(Br)c23)C1 [Example 42-1, (S)-1-(1-Amino-4-bromo-5-isoquinolinesulfonyl)-3-(methylamino)pyrrolidine] | – | ≥ 50 | – | 5 to 10 | – | – | –
1 to 3 | CN(C)CC(=O)N[C@H]1CCN(S(=O)(=O)c2cccc3cncc(Cl)c23)C1 [Example 57-1, (S)-3-[(2-Dimethylamino)acetyl]amino-1-(4-chloro-5-isoquinolinesulfonyl)pyrrolidine] | ≥ 30 | – | – | ≥ 20 | – | extended the walk distance | 183
< 1 | CN[C@H]1CCN(S(=O)(=O)c2cccc3c(O)ncc(Br)c23)C1 [Example 35-1, (S)-1-(1-Hydroxy-4-bromo-5-isoquinolinesulfonyl)-3-(methylamino)pyrrolidine] | ≥ 50 | – | – | 5 to 10 | – | – | –
1 to 3 | CN[C@H]1CCN(S(=O)(=O)c2cccc3c(N)ncc(Cl)c23)C1 [Example 40-1, (S)-1-(1-Amino-4-chloro-5-isoquinolinesulfonyl)-3-(methylamino)pyrrolidine] | ≥ 50 | ≥ 50 | – | 5 to 10 | – | – | –
< 1 | CN[C@@H]1CCN(S(=O)(=O)c2cccc3cncc(Cl)c23)C1 [Example 32-2, (R)-1-(4-Chloro-5-isoquinolinesulfonyl)-3-(methylamino)pyrrolidine] | – | ≥ 50 | – | 10 to 20 | – | – | –
